# Test system: C57/B6 mouse embryos
# Assay: Reproductive studies: maternal, fetal and gross/visceral malformation observations after treatment on GD-8 or GD-13
# Assay type: in vivo
# Conditions: for Number of female embryos / Number of male embryos: number (percentage); for Exomphalos / Eye open / Kinky tail / Left/right kidney hypo/descended / Mandible hypoplasia / Maxilla hypoplasia / Microtia/low set microtia / Undescended testis: number of embryos (percentage); for Live fetus/litter / Resorption/litter: parentheses contain percentages; for Placental weight, IUGR −2SD: fraction (percentage); for Fetal weight, IUGR −1SD / Fetal weight, IUGR −2SD: fraction of fetuses (percentage)
# Experimental: Reproductive studies were conducted in adult female mice, averaging 30 gm in weight and 6 weeks in age ([Padmanabhan et al., 2006]; [Bastaki et al., 2018]). Following successful mating, indicated by vaginal plug observation, the plug-positive day was considered gestation day 0 (GD-0). DL76 was administered at various doses (7.5 mg/kg, 15 mg/kg, 30 mg/kg, and 60 mg/kg) through single i.p. injections and three 15 mg/kg injections in 1 day to mouse groups on GD-8 and GD-13 (Tables 1, 2). The control group was injected with normal saline. Appropriate formation of different organs occurs in specific periods of the development of the mouse. These two periods were selected because GD-8 is known to be a critical period for the induction of neural tube defects, craniofacial malformations, and the development of other organs, whereas on GD-13, the retina and other parts are being formed, and most other organs have been formed. The number of implantations, fetal deaths, and resorptions was recorded. Fetal and placental weights were documented separately. After blotting dry, the fetuses were weighed and fixed in 95% ethanol. The reproductive toxicological effects of DL76 were assessed by observing gross and visceral malformations, following [Sterz and Lehmann (1985)], [Abdulrazzaq et al. (1997)], [Padmanabhan et al. (2003)], and [Padmanabhan et al. (2006)].
# Deformities of the embryos were identified according to a modified method of [Sterz and Lehmann (1985)], [Abdulrazzaq et al. (1997)], and [Bass et al. (2020)]. Accordingly, the embryos were removed from the 95% ethanol, and the lower part of the abdomen was cut using a razor blade. All organs were checked for abnormalities with a stereo dissecting microscope, and finally, the organs were removed by using forceps.
# Statistical analyses employed SPSS 26.0 (IBM Middle East, Dubai, UAE). Data were presented as means ± SEM. […] Fetal abnormality data were presented as counts and percentages. Fisher’s exact test compared the percentages of abnormalities between the control group (saline) and the different dose groups. All tests were two-tailed, and significance was set at p < 0.05.
smiles,measurement,setting,value
"CC(C)(C)c1ccc(OCCCN2CCCCC2)cc1 [DL76, 1-(3-(4-tert-butyl-phenoxy)propyl) piperidine]",Number of female embryos,30 mg/kg i.p. on GD-13,24 (55.8)
same,Number of male embryos,30 mg/kg i.p. on GD-13,19 (44.2)
same,Exomphalos,30 mg/kg i.p. on GD-13,1 (2.3)
same,Eye open,30 mg/kg i.p. on GD-13,0
same,Kinky tail,30 mg/kg i.p. on GD-13,0
same,Left/right kidney hypo/descended,30 mg/kg i.p. on GD-13,1 (2.3)
same,Mandible hypoplasia,30 mg/kg i.p. on GD-13,3 (7.0)
same,Maxilla hypoplasia,30 mg/kg i.p. on GD-13,2 (4.7)
same,Microtia/low set microtia,30 mg/kg i.p. on GD-13,1 (2.3)
same,Undescended testis,30 mg/kg i.p. on GD-13,0
same,Live fetus/litter,30 mg/kg i.p. on GD-13,6.143 (87.76)
same,Resorption/litter,30 mg/kg i.p. on GD-13,.857 (12.24)
same,Fetal weight/Litter (g) (Mean ± SD),60 mg/kg i.p. on GD-8,1.048 ± .0156 g
same,Fetuses/litter,60 mg/kg i.p. on GD-8,7.286 ± 1.380
same,Placental weight/Litter (g) (mean ± SD),60 mg/kg i.p. on GD-8,0.101 ± 0.010 g
same,"Placental weight, IUGR −2SD",60 mg/kg i.p. on GD-8,0
same,"Fetal weight, IUGR −1SD",60 mg/kg i.p. on GD-8,0
same,Number of female embryos,60 mg/kg i.p. on GD-8,21 (45.7)
same,Number of male embryos,60 mg/kg i.p. on GD-8,25 (54.3)
same,Exomphalos,60 mg/kg i.p. on GD-8,0
same,Eye open,60 mg/kg i.p. on GD-8,1 (2.2)
same,Kinky tail,60 mg/kg i.p. on GD-8,0
same,Left/right kidney hypo/descended,60 mg/kg i.p. on GD-8,2 (4.3)
same,Mandible hypoplasia,60 mg/kg i.p. on GD-8,4 (8.7)
same,Maxilla hypoplasia,60 mg/kg i.p. on GD-8,2 (4.3)
same,Microtia/low set microtia,60 mg/kg i.p. on GD-8,2 (4.3)
same,Undescended testis,60 mg/kg i.p. on GD-8,0
same,Live fetus/litter,60 mg/kg i.p. on GD-8,6.571 (90.20)
same,Resorption/litter,60 mg/kg i.p. on GD-8,0.714 (9.80)
same,Fetal weight Litter (g) (Mean ± SD),60 mg/kg i.p. on GD-13,1.051 ± 0.122 g
same,Fetuses/litter,60 mg/kg i.p. on GD-13,7.000 ± 1.414
same,Placental weight/Litter (g) (mean ± SD),60 mg/kg i.p. on GD-13,0.097 ± 0.010 g
same,"Fetal weight, IUGR −1SD",60 mg/kg i.p. on GD-13,0
same,"Fetal weight, IUGR −2SD",60 mg/kg i.p. on GD-13,0
same,Number of female embryos,60 mg/kg i.p. on GD-13,17 (53.1)
same,Number of male embryos,60 mg/kg i.p. on GD-13,15 (46.9)
same,Exomphalos,60 mg/kg i.p. on GD-13,0
same,Eye open,60 mg/kg i.p. on GD-13,2 (6.3)
same,Kinky tail,60 mg/kg i.p. on GD-13,0
same,Left/right kidney hypo/descended,60 mg/kg i.p. on GD-13,2 (6.3)
same,Mandible hypoplasia,60 mg/kg i.p. on GD-13,2 (6.3)
same,Maxilla hypoplasia,60 mg/kg i.p. on GD-13,2 (6.3)
same,Microtia/low set microtia,60 mg/kg i.p. on GD-13,2 (6.3)
same,Undescended testis,60 mg/kg i.p. on GD-13,2 (6.3)
same,Live fetus/litter,60 mg/kg i.p. on GD-13,5.333 (76.19)
same,Resorption/litter,60 mg/kg i.p. on GD-13,1.667 (23.81)
same,Fetal weight/Litter (g) (Mean ± SD),3 × 15-dose i.p. on GD-8,1.037 ± 0.101 g
same,Fetuses/litter,3 × 15-dose i.p. on GD-8,8.143 ± 0.690
same,Placental weight/Litter (g) (mean ± SD),3 × 15-dose i.p. on GD-8,0.092 ± 0.007 g
same,"Placental weight, IUGR −2SD",3 × 15-dose i.p. on GD-8,0
same,"Fetal weight, IUGR −2SD",3 × 15-dose i.p. on GD-8,0
same,Number of female embryos,3 × 15-dose i.p. on GD-8,24 (51.1)
same,Number of male embryos,3 × 15-dose i.p. on GD-8,23 (48.9)
same,Exomphalos,3 × 15-dose i.p. on GD-8,0
same,Eye open,3 × 15-dose i.p. on GD-8,4 (8.5)
same,Kinky tail,3 × 15-dose i.p. on GD-8,0
same,Left/right kidney hypo/descended,3 × 15-dose i.p. on GD-8,2 (4.3)
same,Mandible hypoplasia,3 × 15-dose i.p. on GD-8,3 (6.4)
same,Maxilla hypoplasia,3 × 15-dose i.p. on GD-8,2 (4.3)
same,Microtia/low set microtia,3 × 15-dose i.p. on GD-8,2 (4.3)
same,Undescended testis,3 × 15-dose i.p. on GD-8,1 (2.1)
same,Live fetus/litter,3 × 15-dose i.p. on GD-8,6.714 (82.46)
same,Resorption/litter,3 × 15-dose i.p. on GD-8,1.429 (17.54)
same,Fetal weight Litter (g) (Mean ± SD),3 × 15-dose i.p. on GD-13,1.051 ± 0.031 g
same,Fetuses/litter,3 × 15-dose i.p. on GD-13,8.286 ± 1.704
same,Placental weight/Litter (g) (mean ± SD),3 × 15-dose i.p. on GD-13,0.110 ± 0.012 g
same,"Placental weight, IUGR −2SD",3 × 15-dose i.p. on GD-13,0
same,"Fetal weight, IUGR −1SD",3 × 15-dose i.p. on GD-13,0
same,"Fetal weight, IUGR −2SD",3 × 15-dose i.p. on GD-13,0
same,Number of female embryos,3 × 15-dose i.p. on GD-13,24 (50.0)
same,Number of male embryos,3 × 15-dose i.p. on GD-13,24 (50.0)
same,Exomphalos,3 × 15-dose i.p. on GD-13,1 (2.1)
same,Eye open,3 × 15-dose i.p. on GD-13,6 (12.5)
same,Kinky tail,3 × 15-dose i.p. on GD-13,1 (2.1)
same,Left/right kidney hypo/descended,3 × 15-dose i.p. on GD-13,2 (4.2)
same,Mandible hypoplasia,3 × 15-dose i.p. on GD-13,3 (6.3)
same,Maxilla hypoplasia,3 × 15-dose i.p. on GD-13,3 (6.3)
same,Microtia/low set microtia,3 × 15-dose i.p. on GD-13,3 (6.3)
same,Undescended testis,3 × 15-dose i.p. on GD-13,0
same,Live fetus/litter,3 × 15-dose i.p. on GD-13,6.857 (82.76)
same,Resorption/litter,3 × 15-dose i.p. on GD-13,1.429 (17.24)
same,"mean fetal weight in each litter, treatment groups vs controls","GD-8 and GD-13, all doses",not significantly different
same,"mean placental weights, treated groups vs controls","GD-8 and GD-13, all doses",not significantly different
same,"number of fetuses in each litter, between all study groups","GD-8 and GD-13, all doses",not significantly different
same,"number of live fetuses, between all study groups","GD-8 and GD-13, all doses",not significantly different
same,"resorption rate, between all the groups","GD-8 and GD-13, all doses",not significantly different
same,maternal toxicity,"all groups, GD-8 and GD-13 treated animals",no sign of maternal toxicity
same,"incidence of exencephaly and craniofacial malformations, exomphalos, microtia, open eye, palate, hydronephrosis, descended kidney, undescended testis, kinky tail",between any of the groups studied,no significant difference
same,"average number of implantations and resorptions, control vs DL76-treated groups",early stages of gestation and organogenesis period,No significant alterations
same,maternal body weight vs control mice group,"single 7.5, 15, 30 or 60 mg/kg i.p. or multiple doses 3 × 15 mg/kg i.p. on GD 8 or 13",failed to affect
same,incidence of gross morphological anomalies in treated fetuses vs control group,single- and multiple-dose groups given i.p.,not significantly different
